{
  "source": "ChEMBL document CHEMBL1154671",
  "about": "“Isoquinoline-based analogs of the cancer drug clinical candidate tipifarnib as anti-Trypanosoma cruzi agents” (Bioorg Med Chem Lett, 2009)",
  "data": [
    {"system": "Trypanosoma cruzi", "test": "Antitrypanosomal activity against Trypanosoma cruzi Tulahuen infected in mouse 3T3 cells", "format": "functional, organism-based", "details": "NIH3T3", "units": {"EC50": "nM"}, "values": [
      {"compound": "COC(c1ccc(Cl)cc1)(c1ccc2cnccc2c1)c1cncn1C", "note": "(stereo not given)", "EC50": 120},
      {"compound": "COC(c1ccc(Cl)cc1)(c1ccc2cncc(-c3c(F)cccc3F)c2c1)c1cncn1C", "note": "(stereo not given)", "EC50": 0.9},
      {"compound": "Cn1cncc1[C@@](N)(c1ccc(Cl)cc1)c1ccc2c(c1)c(-c1cccc(Cl)c1)cc(=O)n2C", "note": "[TIPIFARNIB]", "EC50": 4},
      {"compound": "COC(c1ccc(Cl)cc1)(c1ccc2cncc(-c3cccc(Cl)c3)c2c1)c1cncn1C", "note": "(stereo not given)", "EC50": 0.5},
      {"compound": "CC[C@@H]([C@H](C)O)n1ncn(-c2ccc(N3CCN(c4ccc(OC[C@@H]5CO[C@@](Cn6cncn6)(c6ccc(F)cc6F)C5)cc4)CC3)cc2)c1=O", "note": "[POSACONAZOLE]", "EC50": 0.3}
    ]}
  ]
}
